The results in this text go back to patent publication US20120015063A1, “COMPOSITION FOR TREATMENT AND/OR PREVENTION OF SKIN DISORDER” (priority 2009, published 2012).

Assay [1] concerns type I collagen. The assay can be described thus: Quantification of type I collagen in skin extract by SDS-PAGE and Western blotting (Example 2). It is filed as in vivo, Hos: HR-1 hairless mice. The conditions noted are these: 0.24% glucosamine-mixed diet, UV-irradiated. (A western blot detects proteins with antibodies after separation by electrophoresis.)
Method: After the grouping, UV-irradiated groups were irradiated with UV light three times a week. Specifically, for the first week, 1 minute of UV irradiation was carried out. For the second week, 2 minutes of UV irradiation, and for the third and fourth week, 3 minutes of UV irradiation were conducted. From the fourth week to the time of dissection completed, 4 minutes of UV irradiation were carried out.
A UVB lump GL20SE (SANKYO DENKI) was used to carry out UV irradiation having irradiation intensity of 0.3 mW/cm^2. […] Irradiation intensity was adjusted by using a digital ultraviolet light intensity meter, UV-340 (AS ONE Corporation). During irradiation, mice were left for one and a half hour in an individualized cage having a size of 9 cm×5 cm×4 cm. In order to decrease a difference in irradiation intensity for respective cages, the mice were irradiated while subjected to a rotation in every occasion.
A frozen and crushed skin was degreased using methanol for 24 hours. Then, an appropriate amount of PBS (−) containing protease inhibitors was added, and the sample was stirred with a rotator and washed twice to remove serum components, etc. […]
In assay [2] the test system is hyaluronic acid (HA). The assay can be described thus: Identification of GAG in skin extract by cellulose acetate membrane electrophoresis (Example 2). It is filed as in vivo, Hos: HR-1 hairless mice. To be noted: 0.24% glucosamine-mixed diet, UV-irradiated.
Method: After the grouping, UV-irradiated groups were irradiated with UV light three times a week. Specifically, for the first week, 1 minute of UV irradiation was carried out. For the second week, 2 minutes of UV irradiation, and for the third and fourth week, 3 minutes of UV irradiation were conducted. From the fourth week to the time of dissection completed, 4 minutes of UV irradiation were carried out. The total irradiation amount was 1.35 J. In addition, moisture content and an amount of food ingested were measured twice a week, and body weight was measured once a week.
A UVB lump GL20SE (SANKYO DENKI) was used to carry out UV irradiation having irradiation intensity of 0.3 mW/cm^2. […] Irradiation intensity was adjusted by using a digital ultraviolet light intensity meter, UV-340 (AS ONE Corporation). During irradiation, mice were left for one and a half hour in an individualized cage having a size of 9 cm×5 cm×4 cm. […]
For assay [3], the system named is carbonyl proteins. The assay can be described thus: Quantification of carbonyl proteins in skin tissue by Oxyblot Western blotting (Example 2). The class given is in vivo, Hos: HR-1 hairless mice. To be noted: 0.24% glucosamine-mixed diet, UV-irradiated. The method, then: After one week of acclimatization, 54 six-week-old male Hos: HR-1 hairless mice were used in experiments. The below-described diet was used, and the mice were reared under conditions at 25° C. while keeping a free access to food and water. In addition, during measurements of the skin moisture content, a humidity meter was used to determine humidity in an animal room. All experiments were conducted under approval (No. 19-76) of Animal Care and Use Committee of Tokyo University of Agriculture and Technology.
Preparation of an administration diet was ordered to Oriental Yeast Co., Ltd. First, 0.072% mangosteen pericarp extract-mixed diet and 0.15% mangosteen pericarp extract-mixed diet were used. In addition, 0.24% glucosamine-mixed diet was used as a positive control, and CRF-1 diet was used as a negative control. A daily amount of mangosteen pericarp extract ingested was set to 120 mg/kg body weight for the 0.072% group, and set to 250 mg/kg body weight for the 0.15% group as a rough guideline.
A study schedule is illustrated in FIG. 1. A study period was set to 8 weeks, and the study was carried out from October to December in 2007. […] The total irradiation amount was 1.35 J. In addition, moisture content and an amount of food ingested were measured twice a week, and body weight was measured once a week. […]

Assay [4] has as its system hairless mice of a photoaging model. The assay can be described thus: Histological analysis of HE-stained dorsal skin (epidermis thickness, edema), mixed-diet administration (Example 2). The class given is in vivo, Hos: HR-1 hairless mice. The conditions noted are these: 0.24% glucosamine-mixed diet.
For assay [5] the test system is unchanged. As to the kind of experiment: Skin moisture content by CORNEOMETER CM825, mixed-diet administration (Example 2). The class given is in vivo, Hos: HR-1 hairless mice. To be noted: 0.24% glucosamine-mixed diet.
The subject of assay [6] is hairless mice, UVB irradiation. The assay can be described thus: Skin moisture content by CORNEOMETER CM 825, oral forced administration (Example 3). The class given is in vivo. To be noted: 20 mg/ml collagen solution, 0.1 ml/10 g body weight orally daily, UV-irradiated (collagen (+) group). The method, then:
Skin moisture content was measured using CORNEOMETER® CM825 (manufactured by COURAGE+KHAZAKA electronic GMBH) twice a week, the measurement being carried out by contacting a probe onto a lumbar region of a mouse prior to UVB irradiation. The measurements were conducted five times, and the average of them was designated as a measured value.
An administration sample employed a mangosteen pericarp formulation. Specifically, a formulation having a ratio of a mangosteen pericarp extract:gum arabic=1:1 was used. One having only gum arabic was used as a control, and collagen was used as a positive control. Solutions having respective concentrations were prepared. A solution having a concentration of 0.1 ml/10 g body weight was orally administered every day during the rearing period by using a stomach tube. Two kinds (a high concentration (24 mg/ml) and a low concentration (12 mg/ml)) of a solution containing a mangosteen pericarp extract were prepared. Then, 24 mg/ml of a gum arabic solution and 20 mg/ml of a collagen solution were prepared.
After 1 week of acclimatization, grouping was conducted based on skin moisture content and viscoelasticity. […]

With `N[C@H]1C(O)O[C@H](CO)[C@@H](O)[C@@H]1O` (some centres unmarked) [GlcN, glucosamine], in assay [1], the “type I collagen band intensity (control (−) set to 1; average of α-chain and β-chain)” value turned out to be 1.25. Moreover, the “band intensity of HA (control (−) set to 1)” value in assay [2] stood at 0.58. In assay [3], the “carbonyl protein band intensity (control (−) set to 1)” value was 1.63. Further, the “thickness of the epidermis compared to control (−)” value in assay [4] (UV-irradiated) was “significant increase in the thickness of the epidermis”. Also, the “thickness of the epidermis” value in assay [4] (UV-irradiated (GlcN (+) group)) is given as 39.46±9.56 μm. For the same compound, the “skin moisture content at week 8” value in assay [5] (UV-irradiated (GlcN (+) group)) is recorded as 62.96±2.78. The “skin moisture content compared to control (+)” value in assay [5] (UV-irradiated, weeks 7 and 8) is reported as “significant increase”.
In the case of collagen, the “skin moisture content at week 7” value in assay [6] is on record as 68.54±2.91.
